Measurements: patent US20210268029A1, “METHODS FOR TREATING CANCER WITH MANUFACTURED T CELLS” (RAPA THERAPEUTICS, LLC, priority 2018, published 2021)

B1: daclizumab: anti-IL-2 receptor monoclonal antibody (antibody, chains of the INN, looked up, V domains shown)
VH: QVQLVQSGAEVKKPGSSVKVSCKASGYTFTSYRMHWVRQAPGQGLEWIGYINPSTGYTEYNQKFKDKATITADESTNTAYMELSSLRSEDTAVYYCARGGGVFDYWGQGTLVTVSS
VL: DIQMTQSPSTLSASVGDRVTITCSASSSISYMHWYQQKPGKAPKLLIYTTSNLASGVPARFSGSGSGTEFTLTISSLQPDDFATYYCHQRSTYPLTFGQGTKVEVK

Key:
Assay type in all cases: cell-based
[1] = system: human CD4^+ and CD8^+ T cells; assay: Western blot of p62, phospho-RAPTOR and BIM after 16-hr pre-incubation (FIGS. 11-13)
Experimental: For FIGS. 11-13, human CD4^+ and CD8^+ T cells were cultured using a 16-hr pre-incubation interval prior to the addition of 3/28 beads at the reduced ratio of 1:3 beads-to-T cells. As indicated in FIGS. 11-13, the various T cell cultures received different methods of mTOR inhibition (rapamycin at 1.0 μM; temsirolimus at 1.0 or 0.1 different conditions of exogenous IL-2 addition, and different conditions relative to addition of the anti-IL-2 receptor monoclonal antibody, daclizumab. After the 16-hr pre-incubation interval, cells were harvested from the T cell cultures, protein was isolated, and p62 (FIG. 11), phospho-RAPTOR (FIG. 12), or BIM (FIG. 13) and the housekeeper gene β-actin were quantified by western blot.

CD4^+ and CD8^+ T cells = assay: Cytokine secretion potential of cultured T cells by Luminex, day 6 and day 13 (FIGS. 3A-3B)
Experimental: To evaluate this, we tested cytokine secretion potential of the manufactured T cells at the end of cell culture (day 6) and then again one week after ex vivo expansion after maximal co-stimulation (3/28 bead-to-T cell ratio, 3:1) and propagation in media devoid of any inhibitors. In FIGS. 3A-3B, CD4^+ and CD8^+ T cells were purified and cultured for 6-days either with or without a 16-hr interval of pre-incubation prior to co-stimulation (1:1 ratio of 3/28 beads-to-T cells). As indicated, temsirolimus was added at concentrations of either 1.0 or 0.1 μM; all cultures were supplemented with IFN-α (10,000 IU/ml) and daclizumab (50 μg/ml). On day 6 of culture, the resultant T cells were co-stimulated for 24 hr using a 3:1 ratio of 3/28 beads; the supernatant was tested for cytokine content by Luminex assay (results are described as pg per ml of cytokine secreted per million cells per 24 hr). […] N.A, abbreviation indicates not applicable (insufficient T cell yield to perform assay).

T cells = assay: FoxP3 and TBET intra-cellular expression in T cells cultured ex vivo, day 6 (FIGS. 1A-1B)
Experimental: T cells were cultured ex vivo, as indicated, using various ratios of anti-CD3, anti-CD28 beads to T cells (1:1 or 1:12); the mTOR inhibitor temsirolimus (1 μM); without or with the anti-IL-2 receptor monoclonal antibody daclizumab (5 or 50 μg/ml); and either Th1 polarization cytokines (IFN-alpha; 10,000 IU/ml) or control regulatory T cell polarization (IL-2 plus TGF-β). At day 6 of culture, the T cells were evaluated for intra-cellular expression of the regulatory T cell transcription factor FoxP3 and the Th1 transcription factor TBET. (FIGS. 1A-1B).

[2] = pre-incubation plus high-dose temsirolimus, compared with other conditions
[3] = temsirolimus 1.0 μM, after 24 hr maximal co-stimulation, with or without overnight pre-incubation
[4] = TREG-permissive culture: bead ratio 1:12, no IFN-α, exogenous IL-2 plus TGF-β

Molecule | phospho-RAPTOR ([1]; high-dose temsirolimus compared to low-dose temsirolimus or high-dose rapamycin) | autophagy marker p62 ([1]; pre-incubation, 1:3 beads, daclizumab, rapamycin 1 μM or temsirolimus 1.0 or 0.1) | day 13 T cell IFN-γ secretion (CD4^+ and CD8^+ T cells; [2]) | day 13 T cell TNF-α secretion (CD4^+ and CD8^+ T cells; [2]) | day 6 T cell cytokine secretion potential (CD4^+ and CD8^+ T cells; temsirolimus 0.1 μM) | day 6 T cell IFN-γ secretion (CD4^+ and CD8^+ T cells; [3]) | day 6 T cell TNF-α secretion (CD4^+ and CD8^+ T cells; [3]) | FoxP3 expression (T cells; [4]) | expression of TBET (T cells; combination of temsirolimus and anti-IL-2 receptor monoclonal antibody) | FoxP3 expression (T cells; exogenous IL-2 added in combination with IFN-α) | T cell expression of FoxP3 (T cells; temsirolimus 1.0 μM with IFN-α, relative to day 0 input T cells) | TBET expression (T cells; 50 μg/ml daclizumab compared with 5 μg/ml) | FoxP3 expression (T cells; IL-2 receptor blockade added to temsirolimus and IFN-α, 50 μg/ml more effective than 5 μg/ml)
CO[C@H]1C[C@@H]2CC[C@@H](C)[C@@](O)(O2)C(=O)C(=O)N2CCCC[C@H]2C(=O)O[C@H]([C@H](C)C[C@@H]2CC[C@@H](OC(=O)C(C)(CO)CO)[C@H](OC)C2)CC(=O)[C@H](C)/C=C(\C)[C@@H](O)[C@@H](OC)C(=O)[C@H](C)C[C@H](C)/C=C/C=C/C=C/1C [temsirolimus] | lower levels | autophagy could be realized | highest | highest | only partially reduced | very low levels | very low levels | not effective | increased expression | not effective | reduced |  | 
B1 |  |  |  |  |  |  |  | not effective |  |  |  | higher degree | further reduced
